Assay results reported in patent US20250049841A1 (priority 2021, published 2025).
Converted amounts (≈) assume the structure as drawn. “And” between values parts separate entries of the source, which are not always exact repeats. Equal entries are not always repeated. Where two headings read alike, the source gives them in different places.

What was measured:
[1] = system: SARS-CoV-2 USA_WA1/2020 strain
[2] = system: SARS-CoV-2 USA_WA1/2020 strain; remark: listed apart in the source
[3] = system: normal, human-derived tracheal/bronchial epithelial (TBE) cells; experiment: Toxicity of test compounds in the TBE tissue model (Example 1); conditions: any of the test compound concentrations
Procedure: (§1) Cell Culture: The EpiAirway™ Model consists of normal, human-derived tracheal/bronchial epithelial (TBE) cells which have been cultured to form a multi layered, highly differentiated model which closely resembles the epithelial tissue of the respiratory tract.
(§2) The TBE cells were grown on 6 mm mesh disks in transwell inserts. […] The cells have unique properties in forming layers, the apical side of which is exposed only to air and that creates a mucin layer. Upon arrival, the cell transwell inserts were immediately transferred to individual wells of a 6-well plate according to manufacturer's instructions, and 1 mL of MatTek's proprietary culture medium (AIR-100-MM) was added to the basolateral side, whereas the apical side was exposed to a humidified 5% CO2 environment. The TBE cells were cultured at 37° C. for one day before the start of the experiment. After the 24 h equilibration period, the mucin layer, secreted from the apical side of the cells, was removed by washing with 400 μL pre-warmed 30 mM HEPES buffered saline solution 3X. Culture medium was replenished following the wash steps.
(§3) Experimental design: Each 2× compound treatment (120 L) and virus (120 μL) was applied to the apical side, and 1× compound treatment only was applied to the basal side (1 mL), for a 2 h incubation. […]

[4] = system: SARS-CoV-2 (strain USA-WA1/2020); experiment: microbe, parasite or virus in culture; type: cell-based, human; conditions: Severe acute respiratory syndrome coronavirus 2, 120 h
[5] = system: Respiratory syncytial virus (RSV-A2); conditions: for SI = CC50/EC90: RSV-A2
[6] = system: Influenza A/California/7/2009 (H1N1); conditions: fresh drug on days 1 and 2; for Log10 CCID50 virus per 0.2 mL: H1N1, day 3
in vitro = conditions: human
Procedure: (§4) The amount of formazan is directly proportional to the number of living cells and the resulting colored solution is quantified by measuring absorbance at 450 nanometers using a multi-well spectrophotometer. Drug concentrations of 2 mg/ml and 1 mg/ml were tested in duplicate wells, and a drug concentration of 0.5 mg/ml was tested in singlet wells. On day 3 (H1N1) or day 6 (RSV), the apical side was washed one time with 400 μL pre-warmed PBS. The CCK-8 solution was added (200 L) to the apical side and incubated at 37° C. for 2 hours. The formazan (100 l) was placed into a 96-well plate and the 450 nm absorbance was recorded. Percent toxicity values were calculated as a percentage of the cell control test wells (no drug treatment) and reported as the 50% cell cytotoxic concentration (CC50) of compound (no virus). Tissues were also observed via microscopy to assess cytotoxicity.

[7] = system: Respiratory syncytial virus (RSV-A2); experiment: microbe, parasite or virus in culture; conditions: human respiratory syncytial virus, read-out: EC90 (VYR 90% effective concentration)
[8] = system: Influenza A/California/7/2009 (H1N1); experiment: microbe, parasite or virus in culture; conditions: H1N1, in Homo sapiens, read-out: EC90 (VYR 90% effective concentration)
[9] = system: normal, human-derived tracheal/bronchial epithelial (TBE) cells
Procedure: as §1, §2, §3

[10] = system: SARS-CoV-2 USA_WA1/2020 strain; conditions: hamster, in vivo
[11] = system: normal, human-derived tracheal/bronchial epithelial (TBE) cells; remark: listed apart in the source
Procedure: as §4

[12] = 200 mg/kg/d b.i.d. PO, individual animals
[13] = 500 mg/kg/d b.i.d. PO, individual animals

With CC(C)C(=O)OC[C@H]1O[C@@H](n2ccc(NO)nc2=O)[C@H](O)[C@@H]1O [EIDD-2801] as the molecule, how does the “effect on lung weights” value ([1]; 200 mg/kg/d PO) read?
The value was “not significantly affected”.

What about the “effect on weight loss (percent initial body weight)” value ([1]; 200 mg/kg/d PO, P<0.01 vs placebo) of the same molecule?
Its value is “prevented weight loss”.

What about the “effect on oropharyngeal swab virus titers” value ([1]; 200 mg/kg/d PO, any day post-infection) of the same molecule?
The value was “did not reduce”.

And the “effect on lung virus titers” value ([1]; 200 mg/kg/d PO, day 6 post-infection, P<0.0001 vs placebo)?
Its value is “reduced lung virus titers”.

And the “effect on nasal tissue virus titers” value ([1]; 200 mg/kg/d PO, vs placebo)?
The value was “did not significantly reduce”.

And the “Oropharyngeal swab Virus Titer, Day Post-Infection 5” value [1, 12]?
The value was 2.0 CCID50/mL (Log10) and <0.7 CCID50/mL (Log10) (3×) and 1.7 CCID50/mL (Log10).

What about the “Oropharyngeal swab Virus Titer, Day Post-Infection 6” value [1, 12] of the same molecule?
Its value is <0.7 CCID50/mL (Log10).

What about the “Virus Titer, Lung tissue, Day 6” value [1, 12] of the same molecule?
Its value is <0.7 CCID50/mL (Log10).

What about the “reduction in lung virus titers, day 3 post-infection” value ([2]; 500 mg/kg/d PO) of the same molecule?
Its value is “one”.

What about the “effect on nasal tissue virus titers” value ([2]; 500 mg/kg/d PO, FIG. 21, once daily comparison) of the same molecule?
Its value is “did not significantly reduce”.

And the “effect on lung weights” value ([2]; 500 mg/kg/d PO, FIG. 22)?
The value was “did not significantly reduce”.

What about the “effect on nasal tissue virus titers, day 3 post-infection” value ([2]; 500 mg/kg/d PO, FIG. 25, twice daily comparison, P<0.01) of the same molecule?
Its value is “significantly reduced”.

What about the “effect on lung weights, Day 6” value ([2]; 500 mg/kg/d PO, FIG. 26) of the same molecule?
The value was “significantly affected”.

And the “effect on lung virus titers, day 3 post-infection” value ([2]; 500 mg/kg/d PO, P<0.01 vs placebo)?
The value was “significantly reduced”.

And the “Virus Titer, Lung tissue, Day 6” value [2, 13]?
Its value is <0.7 CCID50/mL (Log10).

And the “Virus Titer, Nasal tissue, Day 6” value [2, 13]?
The value was <0.7 CCID50/mL (Log10) (4×) and 1.7 CCID50/mL (Log10).

For CO[Si](CCCN(C)[N+]([O-])=NO)(OC)OC [MAP3-NONOate, N, N-methylaminopropyl diazeniumdiolate trimethoxysilane], which toxicity [3] is on record?
The toxicity was “No toxicity was observed”.

Which EC90 ([4]; read-out: EC90 (Titer 1)) does the source give for CCC(CC)COC(=O)[C@H](C)N[P@](=O)(OC[C@H]1O[C@@](C#N)(c2ccc3c(N)ncnn23)[C@H](O)[C@@H]1O)Oc1ccccc1 [Remdesivir] here?
Its EC90 is 0.0065 µg/mL (≈ 0.0108 µM).

What about the EC90 ([4]; read-out: EC90 (Titer Avg.)) of the same molecule?
The EC90 was 0.0065 µg/mL (≈ 0.0108 µM).

For NC(=O)c1ncn([C@@H]2O[C@H](CO)[C@@H](O)[C@H]2O)n1 [Ribavirin], which “EC90 (VYR 90% effective concentration)” value [5] is on record?
The value was 4.6 µg/mL (≈ 18.8 µM).

What about the “SI = CC50/EC90” value ([5]; fresh drug on days 1, 2, and 5) of the same molecule?
The value was greater than 19.54.

What about the “SI = CC50/EC90” value ([5]; fresh drug on days 1-5) of the same molecule?
Its value is greater than 21.7.

And the “Log10 CCID50 virus per 0.2 mL” value ([6]; concentration 1 μg/ml)?
The value was 6.50 Log10 CCID50 virus per 0.2 mL.

And the “Log10 CCID50 virus per 0.2 mL” value ([6]; concentration 10 μg/ml)?
Its value is 4.00 Log10 CCID50 virus per 0.2 mL.

And the “Log10 CCID50 virus per 0.2 mL” value ([6]; concentration 100 μg/ml)?
The value was 2.67 Log10 CCID50 virus per 0.2 mL.

And the “SI = CC50/EC90” value ([6]; H1N1)?
The value was greater than 52.9.

What about the CC50 (in vitro) of the same molecule?
Its CC50 is greater than 100 µg/mL.

And the CC50 at 6 days (in vitro)?
The CC50 at 6 days was greater than 100 µg/mL.

What about the EC90 [7] of the same molecule?
The EC90 was 5.12 µg/mL (≈ 21 µM).

What about the EC90 [8] of the same molecule?
Its EC90 is 1.89 µg/mL (≈ 7.74 µM).

Which toxicity [9] does the source give for berdazimer sodium here?
Its toxicity is “No toxicity was observed”.

What about the adverse events ([1]; hamster, in vivo, 2 mg/kg/day) of the same molecule?
Its adverse events is “No adverse events were observed”.

What about the premature deaths [10] of the same molecule?
Its premature deaths is “no premature deaths were observed”.

And the deaths ([2]; hamster, in vivo)?
The deaths was “two of the ten animals”.

And the “cytotoxicity, tissues observed under the microscope” value [11]?
Its value is “no overt cytotoxicity”.
